target: T1, Mtb proteasome (Mycobacterium tuberculosis, UniProt P9WHT9); experiment: biochemical; conditions: not given
T1 construct: Proteasome activity of the supernatants was assessed; endogenous in cells; host or cells: Mycobacterium tuberculosis H37Ra (crude lysate supernatant)
T1 sequence (P9WHT9 58-291): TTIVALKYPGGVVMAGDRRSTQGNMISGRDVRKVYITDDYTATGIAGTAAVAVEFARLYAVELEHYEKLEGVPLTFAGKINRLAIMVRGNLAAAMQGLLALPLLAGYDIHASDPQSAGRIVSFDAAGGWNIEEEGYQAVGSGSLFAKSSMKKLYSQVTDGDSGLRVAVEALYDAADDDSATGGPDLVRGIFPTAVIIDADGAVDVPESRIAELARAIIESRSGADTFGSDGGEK
T1 sequence (P9WHU1 whole entry partner): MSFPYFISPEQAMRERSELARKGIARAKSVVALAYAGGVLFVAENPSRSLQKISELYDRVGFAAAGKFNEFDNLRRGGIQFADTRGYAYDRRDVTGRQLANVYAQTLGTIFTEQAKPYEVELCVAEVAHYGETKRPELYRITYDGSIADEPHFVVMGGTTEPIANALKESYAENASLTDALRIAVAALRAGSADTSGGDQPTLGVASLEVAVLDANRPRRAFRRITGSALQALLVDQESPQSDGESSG

Compound	IA: inhibitory activity of Mtb proteasome [%]	IC50 [µM]
COC(=O)c1c2c(c3ccccc3c1O)OC(C)(C)C=C2 [rubimaillin]	46.37	–
C=C[C@H]1[C@H](O[C@@H]2O[C@H](CO)[C@@H](O)[C@H](O)[C@H]2O)OC=C2C(=O)OCC[C@]21O [swertiamain]	14.39	–
O=C(O[C@@H]1Cc2c(O)cc(O)cc2O[C@@H]1c1cc(O)c(O)c(O)c1)c1cc(O)c(O)c(O)c1 [epigallocatechin gallate]	45.21	–
CC1=C(O)C(=O)C=C2C1=CC=C1[C@@]2(C)CC[C@@]2(C)[C@@H]3C[C@](C)(C(=O)O)CC[C@]3(C)CC[C@]12C [tripterine]	–	114
COc1ccc2cc1Oc1ccc(cc1)C[C@H]1c3cc(c(OC)cc3CCN1C)Oc1c(OC)c(OC)cc3c1[C@H](C2)N(C)CC3 [hanfangchin A]	0.00	–
COc1c(O)cc2oc3cc(O)c(CC=C(C)C)c(O)c3c(=O)c2c1CC=C(C)C [alpha mangostin]	64.16	–
asiaticoside	0.00	–
C=C1CC[C@@H]2[C@](C)(CO)[C@H](O)CC[C@@]2(C)[C@@H]1/C=C/C1=CCOC1=O [dehydroandrographolide]	32.67	–
COc1c(O[C@@H]2O[C@H](C(=O)O)[C@@H](O)[C@H](O)[C@H]2O)cc(O)c2c(=O)cc(-c3ccccc3)oc12 [wogonoside]	59.01	–
martin hydrochloride	43.66	–
evodine	31.77	–
C[C@H]1CC[C@@H]2N(C1)C[C@H]1[C@@H]3C[C@H]4[C@@H](C[C@H](O)[C@H]5C[C@@H](O)CC[C@@]54C)[C@@H]3CC[C@@H]1[C@]2(C)O [peimine]	3.05	–
C=C1C[C@@]2(O)O[C@@]3(C[C@H]2C(C)C)[C@@H](C)CC[C@@H]13 [curcumol]	34.66	–
COc1cc(C)c(C(=O)Oc2cc(C)c(C(=O)O)c(O)c2C)c(OC)c1C [diffractic acid]	0.00	–
tubeimoside A	0.00	–
COc1cc2ccc(=O)oc2c(O[C@@H]2O[C@H](CO)[C@@H](O)[C@H](O)[C@H]2O)c1O [fraxin]	0.00	–
CC(C)(O)[C@H]1CC[C@@](C)([C@H]2[C@@H](O)C[C@@]3(C)[C@@H]4C[C@H](O[C@@H]5O[C@H](CO)[C@@H](O)[C@H](O)[C@H]5O)[C@H]5C(C)(C)[C@@H](O[C@@H]6OC[C@@H](O)[C@H](O)[C@H]6O)CC[C@@]56C[C@@]46CC[C@]23C)O1 [astragaloside A]	23.59	–
O=C(/C=C/c1ccc(O)cc1)c1ccc(O)cc1O [isoliquiritigenin]	–	63.9
C=C(C)[C@@H]1CC[C@]2(CO)CC[C@]3(C)[C@H](CC[C@@H]4[C@@]5(C)CC[C@H](O)C(C)(C)[C@@H]5CC[C@]43C)[C@@H]12 [betulinol]	6.52	–
O=c1c(O)c(-c2cc(O)c(O)c(O)c2)oc2cc(O)cc(O)c12 [myricetin]	–	55.4
COc1ccc(-c2cc(=O)c3c(O)c(OC)c(O[C@@H]4O[C@H](CO[C@@H]5O[C@@H](C)[C@H](O)[C@@H](O)[C@H]5O)[C@@H](O)[C@H](O)[C@H]4O)cc3o2)cc1 [pectolinarin]	–	50
silmyarin	0.00	–
dipsacoside	0.00	–
O=c1c(O)c(-c2ccc(O)cc2)oc2cc(O)cc(O)c12 [kaempferol]	–	107
COc1ccc2cc1Oc1ccc(cc1)C[C@H]1c3cc(c(OC)cc3CCN1C)Oc1c(O)c(OC)cc3c1[C@H](C2)N(C)CC3 [hanfangchin B]	0.00	–
madecassoside	0.00	–
Cc1cc(O)c2c(c1)C(=O)c1cc(O)cc(O)c1C2=O [emodin]	–	81.1
O=c1cc(-c2ccccc2)oc2cc(O)c(O)c(O)c12 [baicalein]	–	45.7
COc1ccc(-c2oc3c(CC=C(C)C)c(O[C@@H]4O[C@H](CO)[C@@H](O)[C@H](O)[C@H]4O)cc(O)c3c(=O)c2O[C@@H]2O[C@@H](C)[C@H](O)[C@@H](O)[C@H]2O)cc1 [icarrin, icariin]	–	88.7

same assay, conditions: 0.5 h, read-out: IA: inhibitory activity of Mtb proteasome

Compound	inhibition at 200 µM [%]
COc1c(O)cc2c(c1O)[C@@H]1O[C@H](CO)[C@@H](O)[C@H](O)[C@H]1OC2=O [bergenin]	3.67
COc1cc(C[C@H]2C(=O)OC[C@@H]2Cc2ccc(OC)c(OC)c2)ccc1O [arctigenin]	27.1
CC(C)=CC[C@H](O)C1=CC(=O)c2c(O)ccc(O)c2C1=O [alkannin]	52.4
C=C1CC[C@@H]2[C@](C)(CO)[C@H](O)CC[C@@]2(C)[C@@H]1C/C=C1/C(=O)OC[C@H]1O [andrographolide]	0
COC1=C[C@@H]2[C@@H]3Cc4ccc(OC)c(O)c4[C@]2(CCN3C)CC1=O [sinomenine]	3.77
CC1=C(O)C(=O)C=C2C1=CC=C1[C@@]2(C)CC[C@@]2(C)[C@@H]3C[C@](C)(C(=O)O)CC[C@]3(C)CC[C@]12C [tripterine]	> 65
O=c1c2cc(O)c(O)cc2oc2cc(O)c([C@@H]3O[C@H](CO)[C@@H](O)[C@H](O)[C@H]3O)c(O)c12 [mangiferin]	31.9
O=C1c2ccccc2C(=O)c2c1ccc(O)c2O [alizarin]	0
COc1ccc(C(C)=O)c(O)c1 [paeonol]	0
COc1ccc2cc3[n+](cc2c1OC)CCc1cc2c(cc1-3)OCO2 [berberine]	0
COC(=O)C1=CO[C@@H](O[C@@H]2O[C@H](CO)[C@@H](O)[C@H](O)[C@H]2O)[C@@H]2C(CO)=CC[C@H]12 [geniposide]	0
O=C(O)C1=C[C@@H](O)[C@@H](O)[C@H](O)C1 [shikimicacid]	0
COc1cc(C(=O)O)cc(OC)c1O [syringic acid]	0
OCc1ccccc1O[C@@H]1O[C@H](CO)[C@@H](O)[C@H](O)[C@H]1O [salicin]	0
OC[C@H]1O[C@@H](OCCc2ccc(O)cc2)[C@H](O)[C@@H](O)[C@@H]1O [salidroside]	34
C=C1CC[C@H]2C(=C)CC[C@H]3C(=C)C(=O)O[C@@H]3[C@@H]12 [dehydrocostuslactone]	32.1
O=C1CCC[C@@H]2[C@H]3CCCN4CCC[C@@H](CN12)[C@@H]34 [matrine]	23.5
O=C1c2cccc(O)c2C(=O)c2c(O)cc(CO)cc21 [aloe-emodin]	34.3
O=C1Nc2ccccc2/C1=C1/Nc2ccccc2C1=O [indirubin]	46
COc1cc2ccc(=O)oc2cc1OC [scoparone]	0
CC(=O)OC(C)(C)CCC(=O)[C@](C)(O)[C@H]1[C@H](O)C[C@@]2(C)[C@@H]3CC=C4[C@@H](C[C@H](O)[C@@H](O)C4(C)C)[C@]3(C)C(=O)C[C@]12C [hemslecin A]	0
O=c1c(-c2ccc(O)cc2)coc2c([C@@H]3O[C@H](CO)[C@@H](O)[C@H](O)[C@H]3O)c(O)ccc12 [puerarin]	0
C=C[C@@H]1C2=CCOC(=O)C2=CO[C@H]1O[C@@H]1O[C@H](CO)[C@@H](O)[C@H](O)[C@H]1O [gentiopicroside]	0
C[C@@H]1CC[C@@]2(OC1)O[C@H]1C[C@H]3[C@@H]4CC=C5C[C@@H](O)CC[C@]5(C)[C@H]4CC[C@]3(C)[C@H]1[C@@H]2C [diosgenin]	0
C=CCc1ccc(O)c(-c2cc(CC=C)ccc2O)c1 [magnolol]	0

Compound	inhibition at 200 µM [%]
O=c1cc(-c2ccc(O)cc2)oc2cc(O)cc(O)c12 [apigenin]	0
CC1(C)[C@@H](O)CC[C@]2(C)[C@H]3C(=O)C=C4[C@@H]5C[C@@](C)(C(=O)O)CC[C@]5(C)CC[C@@]4(C)[C@]3(C)CC[C@@H]12 [glycyrrhetinic Acid]	0
O=c1cc(-c2ccc(O)c(O)c2)oc2cc(O)cc(O)c12 [luteolin]	0
O=C(/C=C/c1ccc(O)cc1)c1ccc(O)cc1O [isoliquiritigenin]	> 65
C[C@H]1[C@H](OC(=O)CCC(=O)O)O[C@@H]2O[C@@]3(C)CC[C@H]4[C@H](C)CC[C@@H]1[C@@]24OO3 [artesunate, reference compound]	13.8
O=c1c(O)c(-c2cc(O)c(O)c(O)c2)oc2cc(O)cc(O)c12 [myricetin]	> 65
COc1cc(/C=C/C(=O)CC(=O)/C=C/c2ccc(O)c(OC)c2)ccc1O [curcumin]	> 65
C[C@@H]1O[C@@H](OC[C@H]2O[C@@H](Oc3c(-c4ccc(O)c(O)c4)oc4cc(O)cc(O)c4c3=O)[C@H](O)[C@@H](O)[C@@H]2O)[C@H](O)[C@H](O)[C@H]1O [rutin]	0
Oc1ccc(/C=C/c2cc(O)cc(O)c2)cc1 [resveratrol]	0
O=c1c(O)c(-c2ccc(O)cc2)oc2cc(O)cc(O)c12 [kaempferol]	> 65
CC(C)=CCOc1c2occc2cc2ccc(=O)oc12 [imperatorin]	15.9
O=c1ccc2ccc(O)cc2o1 [umbelliferone]	0
O=C1c2cccc(O)c2C(=O)c2c(O)cccc21 [1,8-dihydroxyanthraquinone]	36.3
COc1ccc2cc1Oc1ccc(cc1)C[C@H]1c3c(cc4c(c3Oc3cc5c(cc3OC)CCN(C)[C@@H]5C2)OCO4)CCN1C [cepharanthine]	0
C[C@H]1CC[C@@]2(OC1)O[C@H]1C[C@H]3[C@@H]4CC[C@@H]5C[C@@H](O)CC[C@]5(C)[C@H]4CC[C@]3(C)[C@H]1[C@@H]2C [sarsasapogenin]	0
Cc1cc(O)c2c(c1)C(=O)c1cc(O)cc(O)c1C2=O [emodin]	> 65
COc1ccc(-c2cc(=O)c3c(O)c(OC)c(O)c(OC)c3o2)cc1 [nevadensin]	48
CC(C)(C)[C@]1(O)CC2OC(=O)CC23C(=O)OC2OC(=O)[C@H](O)C231 (stereo partly drawn) [bilobalide]	18.6
COc1ccc2ccc(=O)oc2c1CC=C(C)C [osthole]	0
O=c1cc(-c2ccccc2)oc2cc(O)c(O)c(O)c12 [baicalein]	> 65
Nc1ncnc2c1ncn2[C@@H]1O[C@H](CO)C[C@H]1O [cordycepin]	7.77
COc1ccc(-c2oc3c(CC=C(C)C)c(O[C@@H]4O[C@H](CO)[C@@H](O)[C@H](O)[C@H]4O)cc(O)c3c(=O)c2O[C@@H]2O[C@@H](C)[C@H](O)[C@@H](O)[C@H]2O)cc1 [icarrin, icariin]	> 65
O=c1ccc2ccccc2o1 [coumarin]	0
COc1c(O[C@@H]2O[C@H](CO)[C@@H](O)[C@H](O)[C@H]2O)cc2occ(-c3ccc(O)cc3)c(=O)c2c1O [tectoridin]	0

Reference: publication PMC4203866, “Identification of plant-derived natural products as potential inhibitors of the Mycobacterium tuberculosis proteasome” (BMC Complementary and Alternative Medicine, 2014)
